Laboratory results reported in patent US5686424A, “2-oxoethyl derivatives as immunosuppressants” (Miles Inc., priority 1995, dated 1997).
Read-outs that look alike come from different tables or passages of the source. Values belong to the compound of their own block, whether it stands above or below them.

Columns and labels:
FKBP = FKBP (Homo sapiens, UniProt P62942); test: PPIase Inhibition Assay; format: biochemical
Experimental: 1) Inhibition of PPIase Activity
This assay follows in principle the procedure described in Kofron et al., 1991, Biochemistry 30:6127.
The three main reagents used are PPIase, a substrate for PPIase, and a selected inhibitor compound of the present invention. The basic principle behind this assay is the conversion of the cis isomer of the substrate to the trans form, which conversion is catalyzed by PPIase. Essentially, inhibition of this PPIase activity is measured for the selected compounds. A peptide chymotrypsin substrate containing a proline in the P2 position is only cleaved by chymotrypsin when the Phe-Pro bond is in the trans isomeric configuration. In the presence of excess chymotrypsin, all of the trans peptide isomers are cleaved within approximately five seconds, leaving only cis forms.
The cis peptide will spontaneously convert to the trans isomer at a slow rate. The cis to trans conversion is catalyzed by isomerases at a much faster rate than this spontaneous conversion. Proteins with PPIase activity are examples of such isomerases. After isomerization, the peptide is cleaved by chymotrypsin releasing p-nitroaniline which can be monitored at 390 nm. The rate of release is then calculated using a first order rate plus offset equation utilizing the ENZFITTER program (Leatherbarrow, BIOSOFT, Cambridge, United Kingdom).
In a plastic cuvette are added 950 ul of ice cold assay buffer (25 mM HEPES, pH 7.8, 100 mM NaCl), 10 uL of FKBP (2.5 uM in 10 mM Tris-Cl pH 7.5, 100 mM NaCl, 1 mM dithiothreitol), 25 ul of chymotrypsin (50 mg/ml in 1 mM HCl) and 10 ul of the test compound at various concentrations in dimethyl sulphoxide. The reaction is initiated by addition of 5 ul of substrate (Succinyl-Ala-Phe-Pro-Phe-para-nitroanilide, 5 mg/ml in 235 mM LiCl in trifluoroethanol).
The absorbance at 390 nm versus time is monitored for 90 sec using a Beckman DU70 spectrophotometer. The absorbance versus time data files are transferred to an IBM XT computer and the rate constants determined using the commercial enzfitter program. For each set of data, the uncatalyzed rate of conversion is measured and the uninhibited enzymatic rate determined. The data are expressed as % Activity remaining and are calculated as follows:
% Activity Remaining=(kobs -kuncat)/(kuninh
where kobs is the rate in the presence of a selected test compound, kuncat is the rate in the absence of enzyme, and kuninh is the rate in the presence of enzyme
Data was plotted as the velocity in the absence of the inhibitor (V-) divided by the velocity in the presence of inhibitor (V+) versus the inhibitor concentration. The IC50 can be determined following linear regression as the inhibitor concentration where

human T-cells = test: Suppression of Human T-Cell Proliferation Assay (PHA-stimulated, [3H]-thymidine incorporation); format: cell-based; conditions: read-out: IC50
Source text: 2) Human T Lymphocyte Inhibition
Inhibition of mitogen-induced T-cell proliferation can be used to profile immunosuppressive activity of test compounds. In the description of the assay which follows, mitogen-induced T-cell activation was used to test the inhibitory potencies of select compounds of the present invention.
In an assay similar to that described by Bradley in Mishell et al. (Eds.), 1980, Selected Methods in Cellular Immunology, pp 156-161, W. H. Freeman & Co., San Fransisco, Calif., T-cells were stimulated by incubation with phytohemagglutinin (PHA) which binds to cell surface molecules, including the T-cell receptor. This stimulation results in proliferation which can be measured by incorporation of [^3 H]-thymidine into cellular DNA.
The immunosuppressive properties of the compounds of the present invention can be determined by adding various concentrations of the compounds to these cultures and measuring the effect on T-cell proliferation.
Suppression of Human T-Cell Proliferation Assay
Fresh LeukoPaks were obtained from the New York Blood Center, New York, N.Y. The cells, including erythrocytes and leukocytes, were diluted with Hank's Balanced Salt Solution (HBSS) (GIBCO, Grand Island, N.Y.) and layered over Lymphoprep (Nycomed Pharma AS, Oslo, Norway) in sterile 50 ml conical centrifuge tubes. Lymphocytes were isolated at the Hank's/Nycomed interface after centrifugation at 2000×g, 4° C. for 15 min. The lymphocytes were washed with Minimal Essential Medium (GIBCO) containing 2% fetal bovine serum (FBS) (Sigma Chemical Co., St. Louis, Mo.), 1% HEPES buffer (GIBCO) and 1% Penicillin-Stretomycin solution (GIBCO).
T-cells were further purified essentially by sheep erythrocyte (SRBC) rosetting as described by Morimoto et al., 1983, J. Immunol. 130:157. The isolated lymphocytes were adjusted to 2×10^7 cells/ml and 5 ml aliquots of the cell suspension were incubated for 10 minutes at room temperature with 5 ml of a 5% SRBC (Cappel, Organon Technika Corp., West Chester, Pa.) suspension. The cells were gently pelleted by centrifugation at 300 rpm for 10 minutes, followed by a 1 hour incubation at room temperature to allow rosette formation. The cells were gently resuspended,layered over Lymphoprep and centrifuged for 30 minutes at 500×g. The pellet, containing rosetted T-cells and SRBC was treated with ice cold buffered ammonium chloride (GIBCO) to lyse the erythrocytes. T-cells were washed twice with HBSS.
Purified T-cells were resuspended at 2×10^6 cells/ml in complete culture medium composed of RPMI-1640 (Whittaker Bioproducts, Walkerville, Md.) with 10% FBS (Sigma), 2 mM L-glutamine (GIBCO), 1% Penicillin-Streptomycin (GIBCO) and 15 mM HEPES (GIBCO). In 96-well plates (Becton Dickinson, Lincoln Park, N.J.), 0.1 ml aliquots of T-cell suspension were mixed with 0.05 ml of 40 μg/ml PHA-M (Sigma). The compounds of this invention were dissolved in dimethylsulfoxide at 10 mM and various dilutions in complete medium were added in duplicate wells (0.05 ml/well). The plates were incubated at 37° C. in a humidified atmosphere of 5% carbon dioxide and 95% air for 72 hours.
Proliferation was assessed by measurement of [^3 H]-thymidine incorporation. During the last 6 hours of incubation, the cells were pulse labelled with 1 μCi/well of [^3 H]-thymidine (New England Nuclear, Boston, Mass.). The cells were harvested onto glass fiber paper using a plate harvester and the radioactivity incorporated into cellular DNA corresponding to individual wells was measured by standard liquid scintillation counting methods.

[1] = concentration of inhibitor required for 50% inhibition of enzyme activity, FKBP, substrate Succinyl-Ala-Phe-Pro-Phe-para-nitroanilide, TABLE I
[2] = concentration inhibiting [3H]-thymidine incorporation of PHA-stimulated T-cells by 50%, 72 hours, TABLE 2

Chain of FKBP (P62942 whole entry): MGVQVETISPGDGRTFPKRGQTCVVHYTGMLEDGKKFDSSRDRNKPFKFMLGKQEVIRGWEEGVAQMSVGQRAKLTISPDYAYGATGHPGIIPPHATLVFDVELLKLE

IC50 (FKBP; [1]): < 50 µM
Compound: O=C(CN1CCC[C@H]1C(=O)N[C@H](C(=O)NCc1ccccc1)c1ccccc1)c1ccccc1 [Example 18]
IC50 (human T-cells; [2]): 6 µM

IC50 (FKBP; [1]): 3.4 µM
Compound: CC[C@H](C)[C@H](NC(=O)[C@@H]1CCCN1CC(=O)c1ccc2ccccc2c1)C(=O)NCc1ccccc1 [Example 8, L-Isoleucine, N-[1-(2-Naphth-2-yl-2-Oxoethyl)-L-Prolyl] Benzylamide]
IC50 (human T-cells; [2]): 50 µM

IC50 (FKBP; [1]): > 5 µM
Compound: CC[C@H](C)[C@H](NC(=O)[C@@H]1CCCN1CC(=O)Nc1ccc(Cl)cc1Cl)C(=O)NCc1ccccc1 [Example 35, L-Isoleucine, N-[1-(2,4-Dichlorophenylcarbamoylmethyl)-L-Proline] Benzylamide]
IC50 (human T-cells; [2]): 43 µM

IC50 (FKBP; [1]): 50 µM
Compound: CC[C@H](C)[C@H](NC(=O)[C@@H]1CCCN1CC(=O)c1sc2ccc(Cl)cc2c1C)C(=O)NCc1ccccc1 [Example 11, L-Isoleucine, N-[1-(2-(5-Chloro-3-Methyl-benzo[B]thiophene-2-yl)-2-Oxoethyl)-L-Prolyl] Benzylamide]
IC50 (human T-cells; [2]): 34 µM

IC50 (FKBP; [1]): > 5 µM
Compound: CC[C@H](C)[C@H](NC(=O)[C@@H]1CCCN1CC(=O)NCC1CCCCC1)C(=O)NCc1ccccc1 [Example 81, L-Isoleucine, N-[1-[2-(N-(Cyclohexylmethylamino))-2-Oxoethyl]-L-Prolyl] Benzylamide]

IC50 (FKBP; [1]): < 50 µM
Compound: L-Isoleucine, N-[1-(2-(2-Methoxyphenyl)-2-Oxoethyl)-L-Prolyl] Benzylamide [Example 10]
IC50 (human T-cells; [2]): < 50 µM

IC50 (FKBP; [1]): < 50 µM
Compound: CC[C@H](C)[C@H](NC(=O)[C@@H]1CCCN1CC(=O)c1cccc(OC)c1)C(=O)NCc1ccccc1 [Example 20, L-Isoleucine, N-[1-(2-(3-Methoxyphenyl)-2-Oxoethyl)-L-Prolyl] Benzylamide]
IC50 (human T-cells; [2]): < 11 µM

IC50 (FKBP; [1]): > 5 µM
Compound: CC[C@H](C)[C@H](NC(=O)[C@@H]1CCCN1CC(=O)NCc1ccccc1)C(=O)NCc1ccccc1 [Example 80, L-Isoleucine, N-[1-[2-(N-(Phenylmethylamino))-2-Oxoethyl]-L-Prolyl] Benzylamide]

IC50 (FKBP; [1]): 2.2 µM
Compound: CC[C@H](C)[C@H](NC(=O)[C@@H]1CCCN1CC(=O)OCc1ccccc1)C(=O)NCc1ccccc1 [Example 5, L-Isoleucine, N-[1-(2-Benzyloxy-2-Oxoethyl)-L-Prolyl] Benzylamide]

IC50 (FKBP; [1]): > 5 µM
Compound: CC[C@H](C)[C@H](NC(=O)[C@@H]1CCCN1CC(=O)NC1CCCC1)C(=O)NCc1ccccc1 [Example 79, L-Isoleucine, N-[1-[2-(N-Cyclopentylamino)-2-Oxoethyl]-L-Prolyl] Benzylamide]

IC50 (FKBP; [1]): < 50 µM
Compound: CC[C@H](C)[C@H](NC(=O)[C@@H]1CCCN1CC(=O)c1ccc([N+](=O)[O-])cc1)C(=O)NCc1ccccc1 [Example 30, L-Isoleucine, N-[1-(2-(4-Nitrophenyl)-2-Oxoethyl)-L-Prolyl] Benzylamide]

IC50 (FKBP; [1]): < 50 µM
Compound: CC[C@H](C)[C@H](NC(=O)[C@@H]1CCCN1CC(=O)c1ccc(OC)cc1OC)C(=O)NCc1ccccc1 [Example 28, L-Isoleucine, N-[1-(2-(2,4-Dimethoxyphenyl)-2-Oxoethyl)-L-Prolyl] Benzylamide]

IC50 (FKBP; [1]): < 50 µM
Compound: CC[C@H](C)[C@H](NC(=O)[C@@H]1CCCN1CC(=O)c1ccccc1[N+](=O)[O-])C(=O)NCc1ccccc1 [Example 29, L-Isoleucine, N-[1-(2-(2-Nitrophenyl)-2-Oxoethyl)-L-Prolyl] Benzylamide]

Continued, compound first:

Compound: CC[C@H](C)[C@H](NC(=O)[C@@H]1CCCN1CC(=O)c1ccc(-c2ccccc2)cc1)C(=O)N1CCc2ccccc2C1 [Example 50, L-Isoleucine, N-[1-(2-(Biphenyl-4-yl)-2-Oxoethyl)-L-Prolyl] 1,2,3,4-Tetrahydroisoquinolinamide]
IC50 (FKBP): 50 µM

Compound: L-Isoleucine, N-[1-(2-(Carbo-tert-Butoxy)-2-Oxoethyl)-L-Proline] Benzylamide [Example 25]
IC50 (FKBP; [1]): 0.99 µM
IC50 (human T-cells; [2]): 63 µM

Compound: CC[C@H](C)[C@H](NC(=O)[C@@H]1CCCN1CC(=O)c1ccc(C)cc1C)C(=O)NCc1ccccc1 [Example 32, L-Isoleucine, N-[1-(2-(2,4-Dimethylphenyl)-2-Oxoethyl)-L-Prolyl] Benzylamide]
IC50 (FKBP; [1]): < 5 µM
IC50 (human T-cells; [2]): 41 µM

Compound: CSCC[C@H](NC(=O)[C@@H]1CCCN1CC(=O)c1ccc(-c2ccccc2)cc1)C(=O)NCc1ccccc1 [Example 54, L-Methionine, N-[1-(2-(Biphenyl-4-yl)-2-Oxoethyl)-L-Prolyl] Benzylamide]
IC50 (FKBP): > 50 µM

Compound: CC[C@H](C)[C@H](NC(=O)[C@@H]1CCCN1CC(=O)c1ccc(-c2ccccc2)cc1)C(=O)NCc1ccccc1 [Example 9, L-Isoleucine, N-[1-(2-(Biphenyl-4-yl)-2-Oxoethyl)-L-Prolyl] Benzylamide]
IC50 (FKBP): < 50 µM
IC50 (human T-cells): 50 µM

Compound: CC[C@H](C)[C@@H](C(=O)NCc1ccccc1)N(C)C(=O)[C@@H]1CCCN1CC(=O)OCc1ccccc1 [Example 22, L-Isoleucine, N-Methyl-N-[1-(2-Benzyloxy-2-Oxoethyl)-L-Prolyl] Benzylamide]
IC50 (FKBP; [1]): > 50 µM
IC50 (human T-cells; [2]): 42 µM

Compound: CCOC(=O)C1CCCN(C(=O)CN2CCC[C@H]2C(=O)N[C@H](C(=O)NCc2ccccc2)[C@@H](C)CC)C1 (stereo partly drawn) [Example 72, L-Isoleucine, N-[1-[2-[N-(Piperidine-3-Carboxylic Acid Ethyl Ester)]-2-Oxoethyl]-L-Prolyl] Benzylamide]
IC50 (FKBP; [1]): < 5 µM

Compound: CC[C@H](C)[C@H](NC(=O)[C@@H]1CCCN1CC(=O)c1ccc(-c2ccccc2)cc1)C(=O)OCc1ccccc1 [Example 51, L-Isoleucine, N-[1-(2-(Biphenyl-4-yl)-2-Oxoethyl)-L-Prolyl] Benzyl Ester]
IC50 (FKBP): > 50 µM

Compound: CC[C@H](C)[C@H](NC(=O)[C@@H]1CCCN1CC(=O)OC)C(=O)NCc1ccccc1 [Example 6, L-Isoleucine, N-[1-(2-Methoxy-2-Oxoethyl)-L-Prolyl] Benzylamide]
IC50 (FKBP): < 50 µM
